# Source: patent US9526718B2, “Combination of effective substances causing synergistic effects of multiple targeting and use thereof” (VIVOZON, INC., priority 2011, dated 2016)
# Experiments:
# [1] = tested on: neuropathic pain rat model (SNL); assay: Neuropathic pain rat model (spinal nerve ligation, SNL), von Frey up-down mechanical threshold; type: in vivo; conditions: Example 1, s.c., alone or combined, MDL 11,939 2 or 5 mg/kg, ORG-25543 10 or 20 mg/kg, 30 and 60 min after administration
# Description: In order to prepare a neuropathic pain rat model (spinal nerve ligation (SNL) model), a male adult Sprague-Dawley rat was anaesthetized with isoflurane and its spinal nerves L5 were tied firmly (Kim and Chung, An experimental model for peripheral neuropathy produced by segmental spinal nerve ligation in the rat. Pain, 50: 355-363, 1992). One week later after surgical operation, MDL 11,939 and ORG-25543 were administered respectively or in combination thereof, and a pain relieving effect was monitored.
# MDL 11,939 (Tocris Bioscience, USA) and ORG-25543 (CBvest inc, Korea) were dissolved in DMA/PG (2:8). MDL 11,939 was subcutaneously injected into the rat model and, immediately, ORG-25543 was subcutaneously injected into another part of the rat model. Then, 30 minutes and 60 minutes after administration, the extent of pain suppression was analyzed based on behaviors of the rat model.
# The behavioral experiment was carried out with strict observance of clinical test procedures including criteria on randomization, a blind test, and use of a control group. By providing a mechanical stimulus to the left sole of the foot, a shrinking reaction to the stimulus was measured. This measurement value was determined by an up-down method using a von Frey monofilament (Baik et al., 2003 E. J. Baik, J. M. Chung and K. Chung, Peripheral norepinephrine exacerbates neuritis-induced hyperalgesia, J Pain 4 (2003), pp. 212-221; Chaplan et al., 1994 S. R. Chaplan, F. W. Bach, J. W. Pogrel, J. M. Chung and T. L. Yaksh, Quantitative assessment of tactile allodynia in the rat paw, J Neurosci Methods 53 (1994), pp. 55-63; Dixon, 1980 W. J. Dixon, Efficient analysis of experimental observations, Annu. Rev. Pharmacol. Toxicol. 20 (1980), pp. 441-462).
# In the same manner as Example 1, a male adult Sprague-Dawley rat was anaesthetized with isoflurane and its spinal nerves L5 were tied firmly. […]
# 5-HT2A receptor = 5-HT2A receptor (Homo sapiens, UniProt P28223); conditions: cited from earlier work
# serotonin release = conditions: hypothalamic, rat; cited from earlier work
# Sequence of 5-HT2A receptor (P28223 whole entry): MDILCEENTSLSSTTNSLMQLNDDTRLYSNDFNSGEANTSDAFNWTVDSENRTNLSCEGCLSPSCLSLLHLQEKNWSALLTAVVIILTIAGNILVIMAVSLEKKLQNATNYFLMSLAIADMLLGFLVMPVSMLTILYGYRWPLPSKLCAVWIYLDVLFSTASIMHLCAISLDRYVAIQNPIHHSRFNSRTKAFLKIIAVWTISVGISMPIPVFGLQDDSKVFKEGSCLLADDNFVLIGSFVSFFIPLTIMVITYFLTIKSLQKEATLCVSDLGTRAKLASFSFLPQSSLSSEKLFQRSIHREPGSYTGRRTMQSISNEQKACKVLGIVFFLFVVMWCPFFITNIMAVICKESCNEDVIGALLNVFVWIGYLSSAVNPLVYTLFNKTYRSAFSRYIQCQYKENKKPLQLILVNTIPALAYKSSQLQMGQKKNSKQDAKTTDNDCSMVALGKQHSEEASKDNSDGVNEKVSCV
compound,measurement,setting,value
COc1cc(C(=O)NCC2(N(C)C)CCCC2)cc(OC)c1OCc1ccccc1 [ORG-25543],pain relieving (analgesic) effect,[1],no effect
same,pain relieving (analgesic) effect,[1]; listed as ORG2553,no or very little pain relieving effect
CC(C)=CCc1c(O)cc2oc3cc(O)c(O)c(CC=C(C)C)c3c(=O)c2c1O [γ-mangostin],antagonistic effect with respect to 5-HT2A receptor,5-HT2A receptor,antagonistic effect
"OC(c1ccccc1)C1CCN(CCc2ccccc2)CC1 (centres unmarked) [MDL 11,939]",pain relieving (analgesic) effect,[1],no or very little pain relieving effect
COc1cc2c(cc1OC)[C@@H]1Cc3ccc(OC)c(OC)c3CN1CC2 [d1-tetrahydropalmatine],serotonin release,serotonin release,mediates inhibition of serotonin release
